Like-named read-outs stand apart in the source and are kept apart here.
Experiments:
FAK = target: T1, FAK (Homo sapiens, UniProt Q05397); assay: Cell-based capture ELISA for inhibition of FAK autophosphorylation [pY397] in U87MG cells
T1 construct: endogenous in cells; host or cells: U87MG glioblastoma cells (ATCC HTB-14)
Procedure: Cell-Based Assays for Inhibition of FAK Autophosphorylation: MiaPaCa2 and U87MG
The ability of compounds to inhibit FAK autophosphorylation was determined in a cell-based capture ELISA assay using U87MG glioblastoma cells (ATCC, Cat # HTB-14) and the FAK [pY397]ELISA kit from Invitrogen (KHO0441). The assay determines the ability of compounds to block endogenous autophosphorylation of FAK stimulated by fibronectin. Cells plated on fibronectin coated 96-well plate were incubated with compounds at various concentrations in the complete growth medium for 2 h. Cell lysates were then prepared and FAK protein was captured onto a FAK antibody-coated 96-well ELISA plate. The phosphotyrosine content of FAK protein was then monitored by quantitation of degree of binding of an antibody that recognizes only the phosphorylated FAK at Y397 within the captured protein.
Reagents Provided in Biosource FAK [pY397]
Cultures of U87MG cells growing in MEM (Earles) containing non-essential amino acids, sodium pyruvate (1 mM), […] (1%) and 10% fetal bovine serum were detached by trypsin-EDTA and suspended in cell growth medium. Cells were then plated onto fibronectin (600 ng/well)-coated 96-well flat bottom plates at 1.7×10^4 cells per well in 60 uL cell growth medium and incubated overnight at 37° C. in a CO2 incubator.
Compound dilutions were prepared from 10 mM DMSO stocks by dilution in cell growth medium, the final concentration of DMSO in the assay being 0.6%. […] The cells were then incubated with compounds at 37° C. for 2 h. The medium was removed by aspiration and cells were lysed by addition of 20 uL of ice-cold cell lysis buffer per well. The plates were kept on ice for 20 min and 50 uL of standard diluent was added to each well. 50 uL of cell lysate from each well was transferred to respective wells in an assay plate and 50 uL of detection antibody was added to all wells except H1-H6 which were no antibody control wells. Capture assay plates were incubated overnight in a cold room.
Following incubation of the cell lysates and detection antibodies in the ELISA plate, the wells were washed 4 times with 120 uL of wash buffer (1×), then 100 uL of diluted HRP conjugated antibody (1:100 dil in diluent) was added to each well, and the plate was incubated at RT for 30 min. The wells were then washed for 4 times with 120 uL of wash buffer (1×) and 100 uL of chromogen was added to each well and incubated in the dark at RT for 5-10 min. 100 uL of stop solution was added to each well and the absorbance measured at 450 nm, 0.1 s.
Comparison of the assay signals obtained in the presence of compound with those of positive and negative controls (cells with no compound and no detection antibody being added), allows degree of inhibition of phospho-FAK [Y397] to be determined over a range of compound concentrations. […] The assay as described above was modified to determine the effect of inclusion of 50% (v/v) mouse or human plasma. In this assay, the compound plate was prepared as 2× concentration in 100 uL of 100% mouse or human plasma, and 60 uL of this was added to 60 uL of culture medium and incubated at 37° C. incubator for 2 h. The rest of the assay was carried out as described above.

[1] = target: T2, GST-tagged full-length FAK enzyme (PTK2) (Homo sapiens, UniProt Q05397); assay: Biochemical Omnia Assay (FAK)
T2 construct: GST-tagged full-length FAK enzyme (PTK2, Invitrogen PV4085); GST; purchased Invitrogen PV4085
Procedure: Biochemical Omnia Assay Protocol
The Omnia Assay (Invitrogen) has been optimized for GST-tagged full-length FAK enzyme (PTK2, Invitrogen PV4085).
All compound concentrations were assayed in duplicate. Initial compound dilutions were prepared at 100× concentration in 100% DMSO from a 10 mM stock solution. Compounds were further diluted 1:25 in assay buffer resulting in a 4× concentrated solution.
In running the assay, 5 μL of the above 4× concentrated compound solution (or 4% DMSO for positive controls) was added to the assay plate followed by 5 μL of a solution containing peptide (40 μM) and ATP (200 μM) in assay buffer. The reaction was initiated by the addition of 10 μL of FAK (50 nM) in assay buffer, or assay buffer alone for negative controls. The increase in fluorescence due to peptide phosphorylation was monitored continuously as a function of time using a Spectramax M5 plate reader (Molecular Devices) equipped with SoftMax Pro 5.2 software.
IC50 values were determined from the slopes of the linear progress curves by non-linear curve-fitting using GraphPad Prism 5 (GraphPad Software, Inc.).

[2] = 50% (v/v) human plasma, mean IC50, read-out: FAK Activity Mechanistic (U87MG) HP
[3] = no plasma present, mean IC50, read-out: FAK Activity Mechanistic (U87MG) NP
[4] = 50% (v/v) mouse plasma, mean IC50, read-out: FAK Activity Mechanistic (U87MG) MP
[5] = mean IC50, [ATP] = 50uM, read-out: FAK Activity Biochemical OMNIA, [ATP] = 50uM

T1 sequence (Q05397 whole entry): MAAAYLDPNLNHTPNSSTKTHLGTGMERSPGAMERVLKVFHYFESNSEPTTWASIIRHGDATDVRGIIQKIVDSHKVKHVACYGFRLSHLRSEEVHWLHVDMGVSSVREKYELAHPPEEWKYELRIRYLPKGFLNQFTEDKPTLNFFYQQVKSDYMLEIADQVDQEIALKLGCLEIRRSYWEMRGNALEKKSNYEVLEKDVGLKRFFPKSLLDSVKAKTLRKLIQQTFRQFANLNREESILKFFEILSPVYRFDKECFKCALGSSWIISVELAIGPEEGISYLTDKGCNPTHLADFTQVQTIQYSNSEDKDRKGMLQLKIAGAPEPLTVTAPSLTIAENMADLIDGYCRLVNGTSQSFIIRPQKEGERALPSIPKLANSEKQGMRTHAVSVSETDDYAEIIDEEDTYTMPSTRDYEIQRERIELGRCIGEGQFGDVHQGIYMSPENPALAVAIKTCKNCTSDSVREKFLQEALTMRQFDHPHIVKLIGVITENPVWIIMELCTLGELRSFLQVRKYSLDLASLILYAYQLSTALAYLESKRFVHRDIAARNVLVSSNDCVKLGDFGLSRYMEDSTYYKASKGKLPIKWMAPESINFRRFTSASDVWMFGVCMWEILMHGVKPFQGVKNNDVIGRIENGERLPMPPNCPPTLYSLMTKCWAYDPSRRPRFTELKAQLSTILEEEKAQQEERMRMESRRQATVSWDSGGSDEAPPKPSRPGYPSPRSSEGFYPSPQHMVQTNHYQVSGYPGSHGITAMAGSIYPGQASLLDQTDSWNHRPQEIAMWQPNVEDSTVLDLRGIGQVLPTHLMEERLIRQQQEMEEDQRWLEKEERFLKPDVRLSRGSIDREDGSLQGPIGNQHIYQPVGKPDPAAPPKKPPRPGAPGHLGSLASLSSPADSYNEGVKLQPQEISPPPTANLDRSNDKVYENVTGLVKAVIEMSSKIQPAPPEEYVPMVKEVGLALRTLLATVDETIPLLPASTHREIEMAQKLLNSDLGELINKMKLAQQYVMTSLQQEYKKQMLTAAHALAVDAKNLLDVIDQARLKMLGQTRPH
T2 sequence (Q05397 whole entry): as above

| SMILES | IC50 (FAK; [2]) | IC50 (FAK; [3]) | IC50 [1] | IC50 (FAK; [4]) | IC50 [1, 5] | IC50 ([1]; read-out: FAK Activity Biochemical OMNIA, [ATP] = 50uM, mean IC50, [ATP] = 50uM) | IC50 (FAK; FAK Activity Mechanistic (U87MG) MP, 50% (v/v) mouse plasma, mean IC50) |
| --- | --- | --- | --- | --- | --- | --- | --- |
| CCOP1(=O)Cc2ccc(c(C)c2)Nc2ncc(C(F)(F)F)c(n2)Nc2ccc(nc2C(=O)NC)-c2cnn(c2)CCCO1 (racemic) [Example 33] | < 0.4 µM | < 0.4 µM | < 0.4 µM |  |  |  |  |
| CNC(=O)c1nc2ccc1Nc1nc(ncc1C(F)(F)F)Nc1ccc(cc1OC)CP(=O)(C(C)C)OCCCn1cc-2cn1 (single isomer, unassigned) [Example 68B] | < 0.4 µM | < 0.4 µM |  | < 0.4 µM | < 0.4 µM |  |  |
| CCOP1(=O)Cc2ccc(c(Cl)c2)Nc2ncc(C(F)(F)F)c(n2)Nc2ccc(nc2C(=O)NC)-c2cnn(c2)CCCO1 (racemic) [Example 24] | < 0.4 µM | 0.4 to 4 µM |  |  | < 0.4 µM |  |  |
| CCOP1(=O)Cc2ccc(c(OC)c2)Nc2ncc(C(F)(F)F)c(n2)Nc2ccc(nc2C(=O)NC)-c2cn(nc2Cl)CCCO1 (racemic) [Example 49] | < 0.4 µM | < 0.4 µM |  | 0.4 to 4 µM | < 0.4 µM |  |  |
| CCOP1(=O)Cc2ccc(c(OC)c2)Nc2ncc(C(F)(F)F)c(n2)Nc2ccc(nc2C(=O)NC)-c2cnn(c2)CC2(COC2)CO1 (racemic) [Example 44] | < 0.4 µM | < 0.4 µM | < 0.4 µM |  |  |  |  |
| CCOP1(=O)Cc2ccc(cc2)Nc2ncc(C(F)(F)F)c(n2)Nc2ccc(nc2C(=O)NC)-c2cnn(c2)CCCO1 (racemic) [Example 13] | < 0.4 µM | < 0.4 µM |  |  | < 0.4 µM |  |  |
| CCOP1(=O)Cc2ccc(c(OC)c2)Nc2ncc(C(F)(F)F)c(n2)Nc2ccc(nc2C(=O)NC)-c2cnn(c2)CC(F)(F)CO1 (single isomer, unassigned) [Example 59A] | 0.4 to 4 µM | < 0.4 µM |  |  |  | < 0.4 µM |  |
| CCOP1(=O)Cc2ccc(c(OC)c2Cl)Nc2ncc(C(F)(F)F)c(n2)Nc2ccc(nc2C(=O)NC)-c2cnn(c2)CCCO1 (racemic) [Example 54] | 0.4 to 4 µM | < 0.4 µM | < 0.4 µM |  |  |  |  |
| CCOP1(=O)Cc2ccc(c(OC)c2)Nc2ncc(C(F)(F)F)c(n2)Nc2ccc(nc2C(=O)NC)-c2cc(C(=O)N3CC(C)(O)C3)n(c2)CCCO1 (racemic) [Example 40] |  | < 0.4 µM | < 0.4 µM |  |  |  | 0.4 to 4 µM |
| CCOP1(=O)Cc2ccc(c(OC)c2)Nc2ncc(C(F)(F)F)c(n2)Nc2ccc(nc2C(=O)NC)-c2cnn(c2)CC(C)CO1 (single isomer, unassigned) [Example 18] | < 0.4 µM | < 0.4 µM |  |  | < 0.4 µM |  |  |
| CCOP1(=O)Cc2ccc(c(OC)c2)Nc2ncc(C(F)(F)F)c(n2)Nc2ccc(nc2C(=O)NC)-c2cnn(c2C)CCCO1 (single isomer, unassigned) [Example 35B] | < 0.4 µM | < 0.4 µM |  |  | < 0.4 µM |  |  |
| CCOP1(=O)Cc2ccc(c(OC)c2)Nc2ncc(C(F)(F)F)c(n2)Nc2ccc(cc2C(=O)N(C)C)-c2cnn(c2)CCCO1 (racemic) [Example 12] | 0.4 to 4 µM | < 0.4 µM |  |  | < 0.4 µM |  |  |
| CCOP1(=O)Cc2ccc(c(OC)c2)Nc2ncc(C(F)(F)F)c(n2)Nc2ccc(nc2C(=O)NC)-c2cnn(c2C#N)CCCO1 (racemic) [Example 53] |  | > 4 µM |  |  | 0.4 to 4 µM |  |  |

From US9133224B2, “Macrocyclic kinase inhibitors” (OSI Pharmaceuticals, LLC, priority 2010, dated 2015)
